We go through seven compounds from ChEMBL document CHEMBL4014286, “Discovery of orally active hepatoselective glucokinase activators for treatment of Type II Diabetes Mellitus” (Bioorg Med Chem Lett, 2017).

By half-life is commonly meant the time needed for the level to fall by half in the phase considered. A low value points to rapid decline. The term Papp denotes the rate of passage across a membrane or cell layer, normalised by area and donor concentration. What is called Kp is tissue or fluid exposure divided by exposure in the circulation. One may read the bioavailability as the share of a dose that reaches the circulation, judged against a reference dose that is usually intravenous. The low end stands for little systemic uptake, the high end for much systemic uptake. For orientation: EC50 means the concentration that produces a half-maximal response. In general, MRT refers to the average time that molecules of a dose stay in the body. Usually clearance stands for the volume of plasma or blood freed of the substance per unit of time. A higher clearance goes with a high capacity for elimination. By fraction unbound is commonly meant free concentration divided by total concentration. A higher fraction unbound goes with much free substance.

A short description of series [1]: Total drug level in HFD-fed C57BL/6 mouse plasma at 30 mg/kg, ip measured 4 hrs post dose. Format: ADME, organism-based.
The nature of series [2]: Half life in rat. The class given is ADME. The note with it: in vivo.
Series [3] can be described thus: Apparent permeability of the compound. The class given is physicochemical. The note with it: not told.
Series [4] in a line: Ratio of drug level in HFD-fed C57BL/6 mouse pancreas to plasma at 30 mg/kg, ip measured 4 hrs post dose. The class given is ADME, organism-based.
Series [5] can be described thus: Oral bioavailability in mouse. The class given is ADME, organism-based. As to conditions: in vivo.
A short description of series [6]: Oral bioavailability in rat. Format: ADME, organism-based. The note with it: in vivo.
The target in another series is T1, Hexokinase-4 (Homo sapiens, UniProt P35557).
T1 sequence (P35557 whole entry): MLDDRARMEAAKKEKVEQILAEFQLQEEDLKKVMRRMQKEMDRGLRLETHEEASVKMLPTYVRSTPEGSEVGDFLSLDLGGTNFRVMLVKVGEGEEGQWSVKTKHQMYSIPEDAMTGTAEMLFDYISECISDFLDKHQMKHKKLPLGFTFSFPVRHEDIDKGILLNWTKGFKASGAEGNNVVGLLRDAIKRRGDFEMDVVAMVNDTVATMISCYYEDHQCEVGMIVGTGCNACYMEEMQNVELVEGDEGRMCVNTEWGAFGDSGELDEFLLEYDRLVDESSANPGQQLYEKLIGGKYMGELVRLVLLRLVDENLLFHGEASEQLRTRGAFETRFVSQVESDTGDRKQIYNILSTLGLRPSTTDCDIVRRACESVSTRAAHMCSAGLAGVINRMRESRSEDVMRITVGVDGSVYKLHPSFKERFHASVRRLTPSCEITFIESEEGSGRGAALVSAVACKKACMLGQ
The series is described as follows: Activation of recombinant human glucokinase assessed as conversion of D-glucose to D-glucose-6-phosphate in presence of 10 mM glucose by G6PDH coupled spectrophotometric assay.

A short description of series [7]: Ratio of drug level in HFD-fed C57BL/6 mouse liver to plasma at 30 mg/kg, ip measured 4 hrs post dose. Format: ADME, organism-based.
Series [8] has as its system Mus musculus. The series is described as follows: Toxicity in HFD-fed C57BL/6 mouse assessed as increase in plasma insulin level at 10 mg/kg, ip. Format: organism-based. The note with it: in vivo.
Series [9] can be described thus: Mean residence time in rat. Format: ADME. As to conditions: in vivo.
Series [10] can be described thus: Total drug level in HFD-fed C57BL/6 mouse pancreas at 30 mg/kg, ip measured 4 hrs post dose. The class given is ADME, organism-based. As to conditions: read-out: Drug uptake.
Series [11] can be described thus: Total drug level in HFD-fed C57BL/6 mouse liver at 30 mg/kg, ip measured 4 hrs post dose. Format: ADME, organism-based. The note with it: read-out: Drug uptake.
A short description of series [12]: Clearance in rat. Format: ADME. The note with it: in vivo.
The subject of series [13] is Mus musculus. The series is described as follows: Antidiabetic activity in HFD-fed C57BL/6 mouse assessed as decrease in plasma insulin level at 30 mg/kg, ip. Format: functional, organism-based.
Series [14] relates to Mus musculus. The series is described as follows: Antidiabetic activity in HFD-fed C57BL/6 mouse assessed as decrease in blood glucose level at 10 to 30 mg/kg, ip. The class given is functional, organism-based.
Series [15] can be described thus: Ratio of drug level in HFD-fed C57BL/6 mouse liver to pancreas at 30 mg/kg, ip measured 4 hrs post dose. The class given is ADME, organism-based. As to conditions: in vivo.
The nature of series [16]: Fraction unbound in C57BL/6 mouse plasma. The class given is ADME, cell-free.
The nature of series [17]: Total drug level in HFD-fed C57BL/6 mouse pancreas at 10 mg/kg, po measured 4 hrs post dose. Format: ADME, organism-based. The note with it: read-out: Drug uptake.
Series [18] has as its system Mus musculus. The series is described as follows: Toxicity in HFD-fed C57BL/6 mouse assessed as increase in plasma insulin level at 10 mg/kg, po. The class given is organism-based. The note with it: in vivo.
Series [19] in a line: Ratio of drug level in HFD-fed C57BL/6 mouse pancreas to plasma at 10 mg/kg, po measured 4 hrs post dose. Format: ADME, organism-based.
A short description of series [20]: Total drug level in HFD-fed C57BL/6 mouse liver at 10 mg/kg, po measured 4 hrs post dose. The class given is ADME, organism-based. As to conditions: read-out: Drug uptake.
A short description of series [21]: Ratio of drug level in HFD-fed C57BL/6 mouse liver to pancreas at 10 mg/kg, po measured 4 hrs post dose. Format: ADME, organism-based. As to conditions: in vivo.
The subject of series [22] is Mus musculus. The series is described as follows: Antidiabetic activity in HFD-fed C57BL/6 mouse assessed as decrease in blood glucose level at 10 mg/kg, po. The class given is functional, organism-based.
Series [23] is described as follows: Total drug level in HFD-fed C57BL/6 mouse plasma at 10 mg/kg, po measured 4 hrs post dose. Format: ADME, organism-based.
The nature of series [24]: Ratio of drug level in HFD-fed C57BL/6 mouse liver to plasma at 10 mg/kg, po measured 4 hrs post dose. The class given is ADME, organism-based.
A short description of series [25]: Total drug level in HFD-fed C57BL/6 mouse pancreas at 3 mg/kg, po measured 4 hrs post dose. The class given is ADME, organism-based. The note with it: read-out: Drug uptake.
The nature of series [26]: Total drug level in HFD-fed C57BL/6 mouse plasma at 3 mg/kg, po measured 4 hrs post dose. Format: ADME, organism-based.
For series [27], the system named is Mus musculus. The series is described as follows: Toxicity in HFD-fed C57BL/6 mouse assessed as increase in plasma insulin level at 30 mg/kg, po. The class given is organism-based. As to conditions: in vivo.
The nature of series [28]: Ratio of drug level in HFD-fed C57BL/6 mouse pancreas to plasma at 30 mg/kg, po measured 4 hrs post dose. Format: ADME, organism-based.
Series [29] in a line: Ratio of drug level in HFD-fed C57BL/6 mouse liver to plasma at 3 mg/kg, po measured 4 hrs post dose. The class given is ADME, organism-based.
In series [30] the test system is Mus musculus. The series is described as follows: Antidiabetic activity in HFD-fed C57BL/6 mouse assessed as decrease in blood glucose level at 30 mg/kg, po. Format: functional, organism-based.
A short description of series [31]: Ratio of drug level in HFD-fed C57BL/6 mouse liver to pancreas at 30 mg/kg, po measured 4 hrs post dose. The note with it: in vivo. The class given is ADME, organism-based.
The nature of series [32]: Ratio of drug level in HFD-fed C57BL/6 mouse liver to plasma at 30 mg/kg, po measured 4 hrs post dose. The class given is ADME, organism-based.
A short description of series [33]: Total drug level in HFD-fed C57BL/6 mouse plasma at 30 mg/kg, po measured 4 hrs post dose. The class given is ADME, organism-based.
A short description of series [34]: Total drug level in HFD-fed C57BL/6 mouse liver at 3 mg/kg, po measured 4 hrs post dose. Format: ADME, organism-based. As to conditions: read-out: Drug uptake.
Series [35] is described as follows: Total drug level in HFD-fed C57BL/6 mouse liver at 30 mg/kg, po measured 4 hrs post dose. Format: ADME, organism-based. As to conditions: read-out: Drug uptake.
A short description of series [36]: Ratio of drug level in HFD-fed C57BL/6 mouse pancreas to plasma at 3 mg/kg, po measured 4 hrs post dose. The class given is ADME, organism-based.
Series [37] can be described thus: Total drug level in HFD-fed C57BL/6 mouse pancreas at 30 mg/kg, po measured 4 hrs post dose. The note with it: read-out: Drug uptake. Format: ADME, organism-based.
A short description of series [38]: Ratio of drug level in HFD-fed C57BL/6 mouse liver to pancreas at 3 mg/kg, po measured 4 hrs post dose. The class given is ADME, organism-based. As to conditions: in vivo.

SMILES strings stand for the structures. Active and inactive are the calls of the source.

As to `COc1ccc(Sc2ccc(Sc3nncn3C)nc2C(=O)Nc2ncc(SCC(=O)O)s2)cc1`, the concentration at 4 h in [1] is 31 µM; in [10] it was 4 µM; in series [11], 452 µM. Moreover, the half-life in [2] was 2 h. Also, the Papp in series [3] came to 2 ×10⁻⁶ cm/s. The Kp at 4 h in [4] stood at 0.16; in [7], 14.9. The results for the bioavailability in series [5] and in series [6] were 3% and 1 to 1.2%, respectively. The EC50 on Hexokinase-4 is 51.5 nM. Moreover, the Activity entry with Mus musculus [8] is “Non-Toxic”. Moreover, the MRT in [9] stood at 0.64 h. The same compound gave a clearance in series [12] of 115 mL/min/kg. For the same compound, the result in the series on Mus musculus [13] and in the series with Mus musculus [14] was Active. For the same compound, the Ratio in series [15] was found to be 113.

Regarding `COc1ccc(Sc2ccc(Sc3ccccn3)nc2C(=O)Nc2ncc(CCC(=O)O)s2)cc1`, the EC50 on Hexokinase-4 was 68.5 nM.

Consider `COc1ccc(Sc2ccc(Sc3ccccn3)nc2C(=O)Nc2ncc(SCC(=O)O)s2)cc1`, for which the half-life in series [2] was 2.1 h. For the same compound, in [3], the Papp amounted to 26 ×10⁻⁶ cm/s. In [6], this compound gave a bioavailability of 57%. Moreover, the EC50 at Hexokinase-4 is 14 nM. Besides, the fraction unbound in series [16] stood at 0.003. The compound also yielded an MRT in series [9] of 0.76 h. Besides, the clearance in series [12] came to 28 mL/min/kg.

Take `Cc1ccc(Sc2ccc(Sc3nnc[nH]3)nc2C(=O)Nc2ncns2)cn1`: in series [2], the half-life is 2.7 h. The concentration at 4 h in series [17] was determined as 8.7 µM; in [20], 77.7 µM; in series [23], 18.5 µM. Also, in series [3], the Papp stood at 21 ×10⁻⁶ cm/s. In addition, the bioavailability in series [6] worked out at 100%. Besides, the concentration giving a half-maximal response (EC50) on Hexokinase-4 amounted to 27.7 nM. Besides, the Activity result in the series on Mus musculus [18] is on record as “Toxic”. The compound further gave a clearance in series [12] of 1.9 mL/min/kg. Besides, the concentration ratio (Kp) at 4 h in [19] stood at 0.5; in series [24], 4.5. Further, the Ratio in series [21] was found to be 8.9. Besides, the result in the series with Mus musculus [22] was Active.

`COc1ccc(Sc2ccc(Sc3ccccn3)nc2C(=O)Nc2nc(CC(=O)O)cs2)cc1`: on Hexokinase-4, the EC50 worked out at 49 nM.

Consider `O=C(O)Cc1nc(NC(=O)c2nc(Sc3ccccn3)ccc2Sc2ccc(F)cc2)sc1Cl`, for which the concentration at 4 h stood at 0.074 µM in series [25]; 0.62 µM in series [26]; 0.47 µM in series [17]; 19.6 µM in series [33]; 10.4 µM in series [34]; 127 µM in [35]. For the same compound, the concentration at 4 h stood at 51.5 µM in series [20], 2.1 µM in series [37] and 4.5 µM in [23]. For the same compound, the Activity result in the series with Mus musculus [27] is “Toxic”; with Mus musculus [18], “Non-Toxic”. The half-life in series [2] is 3.9 h. Besides, in series [3], the Papp was 25 ×10⁻⁶ cm/s. The Kp at 4 h in [28] was determined as 0.11; in [29] it was 17.7; in series [32], 6.7; in series [36], 0.13; in series [19], 0.1; in series [24], 12.4. Further, the outcome with Mus musculus [30] and in the series on Mus musculus [22] was Active. For the same compound, the Ratio is 70 in series [31], 159 in [38] and 127 to 128 in series [21]. In series [6], the bioavailability came to 25%. The EC50 at Hexokinase-4 is 9.6 nM. The compound also showed a fraction unbound in series [16] of 0.049. The MRT in [9] amounted to 1.4 h. This compound also displayed a clearance in series [12] of 50 mL/min/kg.

`COc1ccc(Sc2ccc(Sc3ccccn3)nc2C(=O)Nc2nc(CC(=O)O)c(Cl)s2)cc1`: the Papp in [3] stood at 22 ×10⁻⁶ cm/s. For the same compound, the EC50 on Hexokinase-4 is 5.7 nM.
